In brackets after ≈: the same amount, converted by molar mass. Read-outs that look alike come from different tables or passages of the source.
How the values were obtained:
E. coli DNA gyrase = molecular target: T1, E. coli DNA gyrase (Escherichia coli, UniProt P0AES4); test: Gyrase Supercoiling High Throughput Plate assay, E. coli; type: biochemical; details: for LE DNA Gyrase E. coli: LE = (1.37/HA) × pIC50
T1 construct: purchased Inspiralis (Norwich, UK)
Procedure: (§1) A Gyrase Supercoiling High Throughput Plate assay kit, purchased from Inspiralis (Norwich. UK) was used to determine IC50 values of compounds on S. aureus and E. coli. […] Biotinylated oligonucleotide in wash buffer was immobilized onto the wells, and the excess oligonucleotide was washed off with wash buffer and ultrapure water. […] The reactions were stopped by adding the TF buffer (50 mM NaOAc (pH 4.7), 50 mM NaCl, and 50 mM MgCl2) to allow the triplex formation (biotin-oligonucleotide-plasmid) for additional 30 min. Afterward, the unbound plasmid was washed off using TF buffer, and the solution of Promega Diamond dye in T10 buffer (10 mM Tris-HCl (pH 8.0), 1 mM EDTA) was added. […] IC50 value represents the mean of two to four independent measurements.

MRSA (QA-11.6) = test: MIC broth microdilution, MRSA QA-11.6; type: cell-based, methicillin-resistant S. aureus; details: Staphylococcus aureus, resistant to cefoxitin, gentamicin, sulfamethoxazole, tetracycline, read-out: MIC MRSA (QA-11.6)
Procedure: (§2) Antimicrobial testing was carried out by the broth microdilution method in 96-well plate format following the Clinical and Laboratory Standards Institute (CLSI) guidelines and European Committee on Antimicrobial Susceptibility Testing (EUCAST) recommendations. Bacterial suspension of specific bacterial strain equivalent to 0.5 McFarland turbidity standard was diluted with cation-adjusted Mueller Hinton broth with TES (Thermo Fisher Diagnostic, Landsmeer, The Netherlands), to obtain a final inoculum of 10^5 CFU/mL. Compounds dissolved in DMSO and inoculum were mixed together and incubated for 18–20 h at 35 °C. Suspensions of Mycobacterium sp. were prepared into a tube of Middelbrook 7H9 broth supplemented with 5% OADC (Thermo Scientific, Trek Diagnostic Systems, West Sussex, UK) and incubated for at least 10 days. After incubation the minimal inhibitory concentration (MIC) values were determined by visual inspection as the lowest dilution of compounds showing no turbidity. Tetracycline was used as a positive control on every assay plate.

S. aureus Topo IV = molecular target: T2, S. aureus Topo IV (Staphylococcus aureus, UniProt Q2FYS4); test: biochemical; details: for IC50: mean of two to four measurements, read-out: Topoisomerase IV IC50 S. aureus
T2 construct: purchased Inspiralis (Norwich, UK)
T2 sequence (Q2FYS5 whole entry): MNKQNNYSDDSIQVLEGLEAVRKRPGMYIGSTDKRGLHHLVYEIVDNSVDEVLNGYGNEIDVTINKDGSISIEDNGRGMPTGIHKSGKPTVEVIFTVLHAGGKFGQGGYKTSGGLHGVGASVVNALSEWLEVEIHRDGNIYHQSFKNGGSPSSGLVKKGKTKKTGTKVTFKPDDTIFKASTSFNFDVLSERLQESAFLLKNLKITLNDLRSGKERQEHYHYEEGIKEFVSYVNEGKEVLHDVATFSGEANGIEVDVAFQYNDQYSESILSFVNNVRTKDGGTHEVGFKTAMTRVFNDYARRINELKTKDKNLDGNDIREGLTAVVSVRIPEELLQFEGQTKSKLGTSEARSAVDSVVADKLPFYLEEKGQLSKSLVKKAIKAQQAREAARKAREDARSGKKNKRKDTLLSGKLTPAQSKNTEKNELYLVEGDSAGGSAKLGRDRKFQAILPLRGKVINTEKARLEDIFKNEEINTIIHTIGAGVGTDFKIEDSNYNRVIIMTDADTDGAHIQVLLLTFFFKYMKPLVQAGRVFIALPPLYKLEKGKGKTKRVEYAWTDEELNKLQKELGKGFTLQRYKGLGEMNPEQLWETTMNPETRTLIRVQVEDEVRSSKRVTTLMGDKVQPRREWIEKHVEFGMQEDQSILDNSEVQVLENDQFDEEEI
T2 sequence (Q2FYS4 whole entry): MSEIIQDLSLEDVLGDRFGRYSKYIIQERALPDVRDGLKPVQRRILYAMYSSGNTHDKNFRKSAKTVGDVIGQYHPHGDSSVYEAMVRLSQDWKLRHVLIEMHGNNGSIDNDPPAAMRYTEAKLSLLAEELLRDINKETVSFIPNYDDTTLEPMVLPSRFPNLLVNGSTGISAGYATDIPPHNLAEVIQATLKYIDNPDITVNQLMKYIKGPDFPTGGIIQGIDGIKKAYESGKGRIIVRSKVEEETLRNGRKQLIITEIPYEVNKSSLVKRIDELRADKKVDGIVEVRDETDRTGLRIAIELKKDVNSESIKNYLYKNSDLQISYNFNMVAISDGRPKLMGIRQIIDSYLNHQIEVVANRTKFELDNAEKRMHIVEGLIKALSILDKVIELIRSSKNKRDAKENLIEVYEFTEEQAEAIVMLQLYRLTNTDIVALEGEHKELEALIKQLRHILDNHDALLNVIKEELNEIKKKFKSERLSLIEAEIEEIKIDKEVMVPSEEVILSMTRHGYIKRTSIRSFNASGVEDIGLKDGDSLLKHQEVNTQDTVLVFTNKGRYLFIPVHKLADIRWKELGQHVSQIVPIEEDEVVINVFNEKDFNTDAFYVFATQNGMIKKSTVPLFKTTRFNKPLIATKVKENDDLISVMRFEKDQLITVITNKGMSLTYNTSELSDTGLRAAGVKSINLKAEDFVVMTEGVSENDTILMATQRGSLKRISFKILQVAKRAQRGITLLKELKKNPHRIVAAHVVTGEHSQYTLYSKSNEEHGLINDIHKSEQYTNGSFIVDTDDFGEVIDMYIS
Procedure: (§3) A Topo IV Relaxation High Throughput Plate assay kit, purchased from Inspiralis (Norwich. UK) was used to determine IC50 values of compounds on S. aureus and E. coli. […] Biotinylated oligonucleotide in wash buffer was immobilized onto the wells, and the excess oligonucleotide was washed off with wash buffer and ultrapure water. 1.5 U of S. aureus or E. coli […] enzyme was incubated together with 0.75 μg of supercoiled pNO1 plasmid as a substrate in the presence of 3 μL inhibitor solution in 10% DMSO and 0.008% Tween 20 at 37 °C for 30 min in a final reaction volume of 30 μL in dilution buffer (50 mM Tris-HCl (pH 7.5), 1 mM DTT, 1 mM EDTA, 40% (w/v) glycerol for S. aureus and 40 mM HEPES, KOH (pH 7.6), 100 mM potassium glutamate, 1 mM DTT, 1 mM EDTA, and 40% (v/v) glycerol for E. coli). The reactions were stopped by adding the TF buffer (50 mM NaOAc (pH 4.7), 50 mM NaCl, and 50 mM MgCl2) to allow the triplex formation (biotin-oligonucleotide-plasmid) for additional 30 min. Afterward, the unbound plasmid was washed off using TF buffer, and the solution of Promega Diamond dye in T10 buffer (10 mM Tris-HCl (pH 8.0), 1 mM EDTA) was added. […] IC50 value represents the mean of two to four independent measurements.

E. coli Topo IV = molecular target: T3, E. coli Topo IV (Escherichia coli, UniProt P0AFI2); test: Topo IV Relaxation High Throughput Plate assay, E. coli; type: biochemical; details: for LE Topo IV E. coli: LE = (1.37/HA) × pIC50
T3 construct: purchased Inspiralis (Norwich, UK)
Procedure: as §3

E. coli D22 = test: MIC broth microdilution, E. coli D22; type: cell-based; details: Escherichia coli, D22; mutation in the lpxC gene that increases membrane permeability; read-out: MIC E. coli D22
Procedure: as §2

[1] = Equilibrium solubility at pH 6.8; details: for solubility thermodynamic at 24 h: phosphate buffered saline, 37 °C, pH 6.8, aqueous buffer, thermodynamic from solid; for solubility at pH 6.8 in words: pH 6.8, single-dose in 500 mL
Procedure: (§4) Prior to the measurements of solubility and permeability isocratic HPLC methods were developed. […] The individual method parameters for each compound are given in the Supplementary Materials Table S1.
The vials were then placed in a homogenizer (Next Advance Bullet Blender, Troy, NY, USA) for 5 min ad speed setting “2” after which they were kept in a thermostated shaker (Tehtnica HeatMix, Domel, Slovenia) at 37 °C and 1200 RPM for 24 h. […] Twenty µL of these solutions were injected for the HPLC analysis by the described methods (Supplementary Materials Table S1). External standards for calibration were made in a mobile phase with 5% acetonitrile in a range of 30–90 mg/L and injected at 20 µL injection volumes.

E. coli N43 (CGSC# 5583) = test: MIC broth microdilution, E. coli N43; type: cell-based; details: Escherichia coli
Procedure: as §2

in vitro = details: PAMPA
Procedure: as §4
A 96-well precoated three-layer PAMPA plates (Corning® Gentest™ Pre-coated PAMPA Plate System, Corning, NY, USA) were used according to the manufacturer’s instructions and as described previously with 300 µL of the donor solutions in the bottom compartment and 200 µL of the acceptor solution (pH 7.4 PBS) in the upper compartment at 37 °C and a 4-h incubation time. The initial and end donor solutions were injected at a 5 µL injection volume. The initial donor solutions were also diluted 100-fold and injected at a 100 µL injection volume to serve as external references for the end acceptor solutions which were injected at the same injection volume. The permeability calculations were made with a manufacturer-provided Excel spreadsheet directly from the measured peak areas accounting for the relevant dilutions and injection volumes.

S. aureus DNA gyrase = molecular target: T4, S. aureus DNA gyrase (Staphylococcus aureus, UniProt P20831); test: biochemical; type: biochemical; details: for LE DNA Gyrase S. aureus: LE = (1.37/HA) × pIC50; for IC50: fluorescence plate supercoiling assay, mean of two to four measurements
T4 construct: purchased Inspiralis (Norwich, UK)
T4 sequence (P20831 whole entry): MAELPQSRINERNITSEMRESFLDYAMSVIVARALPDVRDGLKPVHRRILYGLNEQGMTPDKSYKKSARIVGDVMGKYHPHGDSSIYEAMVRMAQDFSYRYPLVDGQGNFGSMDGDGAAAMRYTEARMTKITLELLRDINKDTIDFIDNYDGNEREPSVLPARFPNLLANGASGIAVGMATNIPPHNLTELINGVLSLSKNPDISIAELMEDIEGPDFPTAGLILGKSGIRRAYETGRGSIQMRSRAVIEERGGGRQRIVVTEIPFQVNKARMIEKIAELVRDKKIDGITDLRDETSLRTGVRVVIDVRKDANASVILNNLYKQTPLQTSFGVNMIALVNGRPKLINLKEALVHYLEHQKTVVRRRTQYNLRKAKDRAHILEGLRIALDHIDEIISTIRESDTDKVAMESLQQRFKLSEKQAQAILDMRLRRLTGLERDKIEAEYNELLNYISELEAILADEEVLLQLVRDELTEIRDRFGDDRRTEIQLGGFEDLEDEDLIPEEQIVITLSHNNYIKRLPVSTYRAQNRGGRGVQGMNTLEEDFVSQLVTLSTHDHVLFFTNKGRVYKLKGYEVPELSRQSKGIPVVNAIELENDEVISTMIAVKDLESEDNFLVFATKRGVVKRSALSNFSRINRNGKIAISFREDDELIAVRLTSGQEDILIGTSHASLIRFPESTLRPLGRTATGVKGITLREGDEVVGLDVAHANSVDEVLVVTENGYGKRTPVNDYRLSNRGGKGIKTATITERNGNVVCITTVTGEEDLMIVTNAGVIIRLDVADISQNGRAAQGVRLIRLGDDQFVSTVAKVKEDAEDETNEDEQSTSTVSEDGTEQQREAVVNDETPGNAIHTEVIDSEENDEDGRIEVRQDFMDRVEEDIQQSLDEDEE
T4 sequence (P0A0K8 whole entry partner): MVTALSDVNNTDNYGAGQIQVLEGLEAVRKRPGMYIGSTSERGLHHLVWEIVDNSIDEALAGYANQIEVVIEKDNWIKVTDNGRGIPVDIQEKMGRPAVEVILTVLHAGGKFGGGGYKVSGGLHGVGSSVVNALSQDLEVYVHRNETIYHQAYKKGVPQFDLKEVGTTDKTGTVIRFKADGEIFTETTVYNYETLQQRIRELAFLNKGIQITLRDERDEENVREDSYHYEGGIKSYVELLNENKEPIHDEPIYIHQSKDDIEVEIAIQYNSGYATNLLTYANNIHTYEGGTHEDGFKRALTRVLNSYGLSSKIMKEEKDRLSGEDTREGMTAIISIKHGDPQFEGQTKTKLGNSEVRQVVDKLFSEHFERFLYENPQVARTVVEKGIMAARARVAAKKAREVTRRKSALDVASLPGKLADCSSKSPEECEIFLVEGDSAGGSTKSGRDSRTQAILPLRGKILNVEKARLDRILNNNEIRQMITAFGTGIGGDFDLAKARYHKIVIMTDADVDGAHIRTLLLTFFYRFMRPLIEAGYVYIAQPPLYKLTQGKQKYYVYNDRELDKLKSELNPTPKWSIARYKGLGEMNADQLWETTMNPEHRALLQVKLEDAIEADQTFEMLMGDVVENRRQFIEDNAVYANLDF
Procedure: as §1

E. coli (QA-11.7) = test: MIC broth microdilution, E. coli QA-11.7; type: cell-based; details: Escherichia coli, 20 h; multi-resistant isolate (ampicillin, azithromycin, cefotaxime, ertapenem, imipenem and others); read-out: MIC E. coli (QA-11.7)
Procedure: as §2

[2] = tested on: C. jejuni RDK 135 (ATCC 33560); test: MIC broth microdilution, C. jejuni; type: cell-based; details: Campylobacter jejuni, ATCC33560; read-out: MIC C. jejuni RDK 135 (ATCC 33560)
Procedure: as §2

M. smegmatis = test: MIC, M. smegmatis; type: cell-based, Mycobacterium smegmatis; details: Mycolicibacterium smegmatis; read-out: MIC M. smegmatis
Procedure: as §2

[3] = read-out: E. coli N43 MIC in molar
[4] = read-out: MIC E. coli N43 (CGSC# 5583)

T1 sequence (P0AES4 whole entry): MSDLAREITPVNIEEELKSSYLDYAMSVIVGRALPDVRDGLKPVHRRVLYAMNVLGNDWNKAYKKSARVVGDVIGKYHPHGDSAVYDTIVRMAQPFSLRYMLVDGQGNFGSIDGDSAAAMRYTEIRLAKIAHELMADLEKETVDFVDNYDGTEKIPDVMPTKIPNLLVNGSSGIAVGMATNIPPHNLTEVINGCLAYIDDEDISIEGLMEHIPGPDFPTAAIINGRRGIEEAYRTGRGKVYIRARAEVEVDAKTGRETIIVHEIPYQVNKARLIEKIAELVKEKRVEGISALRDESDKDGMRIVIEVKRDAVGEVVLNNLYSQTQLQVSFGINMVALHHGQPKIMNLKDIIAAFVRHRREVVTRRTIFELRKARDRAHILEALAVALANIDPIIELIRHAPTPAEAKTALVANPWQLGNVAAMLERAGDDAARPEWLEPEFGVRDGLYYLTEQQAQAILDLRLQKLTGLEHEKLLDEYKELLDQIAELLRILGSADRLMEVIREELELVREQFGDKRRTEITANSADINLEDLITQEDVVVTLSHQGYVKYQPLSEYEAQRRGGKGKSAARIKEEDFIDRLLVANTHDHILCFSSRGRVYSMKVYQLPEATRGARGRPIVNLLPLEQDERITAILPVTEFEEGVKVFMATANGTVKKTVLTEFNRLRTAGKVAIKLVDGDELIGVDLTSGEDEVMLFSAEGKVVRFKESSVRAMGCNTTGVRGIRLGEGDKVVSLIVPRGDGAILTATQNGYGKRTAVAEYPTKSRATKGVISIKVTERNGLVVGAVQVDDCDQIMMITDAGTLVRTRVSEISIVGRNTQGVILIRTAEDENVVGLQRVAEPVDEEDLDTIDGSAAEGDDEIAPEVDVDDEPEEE

With `COc1ccc2nccc(CCN3CCC(NCc4cnn(-c5ccccc5)n4)CC3)c2n1` [Compound 8, 1-(2-(6-Methoxy-1,5-naphthyridin-4-yl)ethyl)-N-((2-phenyl-2H-1,2,3-triazol-4-yl)methyl)piperidin-4-amine] the IC50 (E. coli DNA gyrase) was 7830 ± 550 nM, the “LE DNA Gyrase E. coli” value (E. coli DNA gyrase) was 0.21 and the MIC (MRSA (QA-11.6)) was 0.5 µg/mL (≈ 1.13 µM). For the same compound, the IC50 (S. aureus Topo IV) was over 100000 nM, the IC50 (E. coli Topo IV) was 210 nM and the “LE Topo IV E. coli” value (E. coli Topo IV) was 0.28. For the same compound, the MIC (E. coli D22) was 32 µg/mL (≈ 72.1 µM), the solubility thermodynamic at 24 h [1] was 106 µg/mL (≈ 239 µM) and the MIC (E. coli N43 (CGSC# 5583); [3]) was 2.26 µM. For the same compound, the MIC (E. coli N43 (CGSC# 5583); [4]) was 1 µg/mL, the Papp at 4 h (in vitro) was over 2.7 ×10⁻⁶ cm/s and the Papp at 4 h (in vitro; pH 7.4) was 10.6 ×10⁻⁶ cm/s. For the same compound, the “LE DNA Gyrase S. aureus” value (S. aureus DNA gyrase) was 0.27, the IC50 (S. aureus DNA gyrase) was 240 ± 40 nM and the MIC (E. coli (QA-11.7)) was 4 µg/mL (≈ 9.02 µM). It also gave an MIC [2] of 4 µg/mL (≈ 9.02 µM) and an MIC (M. smegmatis) of 0.5 µg/mL (≈ 1.13 µM).
For `COc1ccc2nccc(CCN3CCC(NCc4cnn(C(C)C)c4)CC3)c2n1` [Compound 9, N-((1-Isopropyl-1H-pyrazol-4-yl)methyl)-1-(2-(6-methoxy-1,5-naphthyridin-4-yl)ethyl)piperidin-4-amine], the IC50 (E. coli DNA gyrase) was 2950 ± 560 nM, the “LE DNA Gyrase E. coli” value (E. coli DNA gyrase) was 0.25 and the MIC (MRSA (QA-11.6)) was 1 µg/mL (≈ 2.45 µM). The “LE Topo IV S. aureus” value (S. aureus Topo IV; LE = (1.37/HA) × pIC50) was 0.20, the IC50 (S. aureus Topo IV) was 40380 ± 90 nM and the IC50 (E. coli Topo IV) was 230 nM. The “LE Topo IV E. coli” value (E. coli Topo IV) was 0.30, the MIC (E. coli D22) was 1 µg/mL (≈ 2.45 µM) and the “solubility at pH 6.8 in words” value [1] was “soluble at this pH in any conceivable single-dose”. It also gave a solubility thermodynamic at 24 h [1] of 7550 µg/mL (≈ 18500 µM), an MIC (E. coli N43 (CGSC# 5583); [3]) of 0.61 µM and an MIC (E. coli N43 (CGSC# 5583); [4]) of 0.25 µg/mL. For the same compound, the Papp at 4 h (in vitro) was over 2.7 ×10⁻⁶ cm/s, the Papp at 4 h (in vitro; pH 7.4) was 3.3 ×10⁻⁶ cm/s and the “LE DNA Gyrase S. aureus” value (S. aureus DNA gyrase) was 0.31. It also gave an IC50 (S. aureus DNA gyrase) of 160 ± 10 nM, an MIC (E. coli (QA-11.7)) of 2 µg/mL (≈ 4.9 µM) and an MIC [2] of 0.5 µg/mL (≈ 1.22 µM). It also gave an MIC (M. smegmatis) of 0.25 µg/mL (≈ 0.612 µM).
In the case of `C=CCn1cc(CNC2CCN(CCc3ccnc4ccc(OC)nc34)CC2)cn1` [Compound 10, N-((1-Allyl-1H-pyrazol-4-yl)methyl)-1-(2-(6-methoxy-1,5-naphthyridin-4-yl)ethyl)piperidin-4-amine], the IC50 (E. coli DNA gyrase) is reported as 16700 ± 930 nM, the “LE DNA Gyrase E. coli” value (E. coli DNA gyrase) is reported as 0.22 and the MIC (MRSA (QA-11.6)) is reported as 4 µg/mL (≈ 9.84 µM). For the same compound, the IC50 (S. aureus Topo IV) was over 100000 nM, the IC50 (E. coli Topo IV) was 280 ± 10 nM and the “LE Topo IV E. coli” value (E. coli Topo IV) was 0.30. The MIC (E. coli D22) was 8 µg/mL (≈ 19.7 µM), the “solubility at pH 6.8 in words” value [1] was “soluble at this pH in any conceivable single-dose” and the solubility thermodynamic at 24 h [1] was 5700 µg/mL (≈ 14000 µM). The MIC (E. coli N43 (CGSC# 5583); [3]) was 2.46 µM, the MIC (E. coli N43 (CGSC# 5583); [4]) was 1 µg/mL and the Papp at 4 h (in vitro) was over 2.7 ×10⁻⁶ cm/s. For the same compound, the Papp at 4 h (in vitro; pH 7.4) was 4.1 ×10⁻⁶ cm/s, the “LE DNA Gyrase S. aureus” value (S. aureus DNA gyrase) was 0.27 and the IC50 (S. aureus DNA gyrase) was 1100 ± 170 nM. For the same compound, the MIC (E. coli (QA-11.7)) was 4 µg/mL (≈ 9.84 µM), the MIC [2] was 8 µg/mL (≈ 19.7 µM) and the MIC (M. smegmatis) was at most 1 µg/mL.
In the case of `COc1ccc2nccc(CCN3CCC(NCc4ccccc4)CC3)c2n1` [Compound 11], the IC50 (E. coli DNA gyrase) is reported as 40600 ± 1970 nM, the “LE DNA Gyrase E. coli” value (E. coli DNA gyrase) is reported as 0.21 and the MIC (MRSA (QA-11.6)) is reported as 8 µg/mL (≈ 21.2 µM). For the same compound, the IC50 (S. aureus Topo IV) was over 100000 nM, the IC50 (E. coli Topo IV) was 2040 ± 200 nM and the “LE Topo IV E. coli” value (E. coli Topo IV) was 0.28. The MIC (E. coli D22) was 16 µg/mL (≈ 42.5 µM), the solubility thermodynamic at 24 h [1] was 1370 µg/mL (≈ 3640 µM) and the MIC (E. coli N43 (CGSC# 5583); [3]) was 21.2 µM. For the same compound, the MIC (E. coli N43 (CGSC# 5583); [4]) was 8 µg/mL, the Papp at 4 h (in vitro) was over 2.7 ×10⁻⁶ cm/s and the Papp at 4 h (in vitro; pH 7.4) was 10.9 ×10⁻⁶ cm/s. For the same compound, the “LE DNA Gyrase S. aureus” value (S. aureus DNA gyrase) was 0.29, the MIC (E. coli (QA-11.7)) was 32 µg/mL (≈ 85 µM) and the MIC [2] was 32 µg/mL (≈ 85 µM). For the same compound, the MIC (M. smegmatis) was 8 µg/mL (≈ 21.2 µM).
